Data: patent publication US5075464A, “17β-(cyclopropylamino)androstene derivatives” (Merrell Dow Pharmaceuticals Inc., priority 1989, dated 1991)

Target: T1, enzymes in the synthesis of aldosterone (Rattus norvegicus, UniProt P30099)
T1 construct: adrenal capsule/glomerulosa homogenates were prepared (6 mg/ml); from tissue; host or cells: adrenal capsule/glomerulosa of sodium-deficient young male Sprague-Dawley rats (homogenate, 500xg supernatant)
Assay: inhibition of aldosterone formation from [3H]-DOC in adrenal capsule/glomerulosa homogenates
Format: biochemical, Sprague-Dawley rats
Conditions: Kitz-Wilson plots, rat adrenal capsule/glomerulosa homogenate
Protocol: Young male Sprague-Dawley rats were maintained on a sodium-deficient diet for about two weeks prior to use. From these animals, adrenal capsule/glomerulosa homogenates were prepared (6 mg/ml) in pH 7.4 assay buffer [MgCl2 8.5 mM, CaCl2 2.7 mM, KCl 3.13 mM, NaCl 7.591 mM, TRIS 50 mM and 0.1% triethylamine] and centrifuged 500xg for 10 minutes.
Assays were conducted in 35 ml glass tubes maintained at 25° C. in a Dubnoff shaker with 95% O2 /5% CO2. The tubes contained the following material: 100 μl of an NADPH+ generating system, 300 μl of adrenal capsular/glomerulosa cytosol, and 50 μl of test compound or buffer (control). After initial preincubation intervals of 20 minutes, the 10-minute assay was started by the addition of 50 μl of tritium-labelled substrate, i.e., 1 μM [^3 H]-DOC. Reactions were quenched by the addition of 5 ml of ethyl acetate and non-radiolabelled steroids were also added. […]
Substrate remaining and products formed were monitored by UV absorbance at 246 nm and the amount of steroid compound present was quantified by [^3 H] radioactivity. […] The Ki time-dependent inhibition and the t1/2 for enzyme inactivation at infinite inhibitor concentration (t50) was determined by the linear regression analyses of t1/2 vs. 1/[I] data of Kitz-Wilson plots Using this procedure, the following results were observed: […]

| Compound | t50 (t1/2 for enzyme inactivation at infinite inhibitor concentration) [min] |
| --- | --- |
| CN(C1CC1)[C@H]1CC[C@H]2[C@@H]3CCC4=CC(=O)CC[C@]4(C)[C@H]3CC[C@]12C [17β-[N-methyl(cyclopropylamino)]androst-4-en-3-one] | 15.4 |
| CN(C1CC1)[C@H]1CC[C@H]2[C@@H]3CC=C4C[C@@H](O)CC[C@]4(C)[C@H]3CC[C@]12C [17β-[N-methyl(cyclopropylamino)]androst-5-en-3β-ol] | 9.0 |
